Read-outs that look alike come from different tables or passages of the source. Marks after values point to notes of the source that are not given here.
Tests used:
TSPO [1] = tested on: TSPO; design: method as in Owen et al. (2010, 2011); conditions: 37 °C, ref Owen et al. (2010, 2011), cited from earlier work; for Bmax-H: HABs, ^3H-PBR28 values also used for PBR111 and DPA713, ^3H-PK11195 for PK11195; for Bmax-L: LABs; for Bmax-M: MABs, both high and low affinity sites, Bmax_H used for PK11195
in vitro = conditions: Landrace, pig, pH 7.4
Experimental: (§1) The fP and fND were measured from Landrace pig tissue (blood and brain — obtained from Charles River Laboratories, Tranent, Scotland) using equilibrium dialysis ([Summerfield et al., 2006]). In brief, the cold test compounds were spiked into plasma or brain homogenate at a concentration of 1 μg/g and dialysed against phosphate buffered saline (PBS, pH 7.4) for 5 h at 37 °C. Aliquots (20–50 μL) of plasma, brain and dialysate were taken and extracted using acetonitrile containing internal standard, followed by LC–MS/MS analysis. The free fractions were determined as the concentration ratio of analyte in dialysate to that in plasma or brain.

TSPO [2] = conditions: ^3H-PK11195, 37 °C, ref Owen et al. (2010, 2011), cited from earlier work
TSPO [3] = experiment: competition assays with ^3H-PK11195 for each binding class; design: species or system human
[4] = equilibrium dialysis, free fractions in plasma and brain tissue; conditions: 1 μg/g, dialysis against PBS pH 7.4, 5 h, 37 °C
Experimental: as §1

| Structure (SMILES) | Bmax-H (TSPO [1]) | Bmax-L (TSPO [1]) | Bmax-M (TSPO [1]) | fraction unbound at 5 h, 1 μg/g (in vitro; brain homogenate) | fraction unbound at 5 h, 1 μg/g (in vitro; plasma) | Ki (TSPO [2]; high affinity site (HABs), read-out: Ki-H) | Ki (TSPO [2]; low affinity site (LABs), read-out: Ki-L) | affinity ratio (high:low binding site) (TSPO [3]) | fND (free fraction in tissue) ([4]; pig brain homogenate) | fp (free fraction in plasma) ([4]; pig plasma) |
| --- | --- | --- | --- | --- | --- | --- | --- | --- | --- | --- |
| CC[C@@H](C)N(C)C(=O)c1cc2ccccc2c(-c2ccccc2Cl)n1 [^11C-(R)-PK11195] | 433 ± 154 (n = 9) nM | 506 ± 131 (n = 5) nM | 433 ± 154 ^b (n = 9) nM | 0.01 ± 0.002 | 0.14 ± 0.039 | – | – | – | – | – |
| CCN(CC)C(=O)Cc1c(-c2ccc(O[11CH3])cc2)nn2c(C)cc(C)nc12 [^11C-DPA713] | 193 ± 66 (n = 6) nM | 99.4 ± 35 (n = 5) nM | 186 ± 37 (n = 4) nM | – | – | – | – | – | – | – |
| CCN(CC)C(=O)Cc1c(-c2ccc(OCCCF)cc2)nc2ccc(Cl)cn12 [^18F-PBR111] | – | – | – | – | – | 15.6 ± 3.7 nM | 61.8 ± 10.7 nM | – | – | – |
| CCN(CC)C(=O)Cc1c(-c2ccc(OCCC[18F])cc2)nc2ccc(Cl)cn12 [^18F-PBR111] | 193 ± 66 (n = 6) nM | 99.4 ± 35 (n = 5) nM | 186 ± 37 (n = 4) nM | – | – | – | – | ~ 4 | 0.06 ± 0.005 (n = 6) | 0.19 ± 0.018 (n = 6) |
